Assay results reported in patent US4454123A, “O-xylopyranoside series compounds and methods of use” (Seikagaku Kogyo Co. Ltd., priority 1980, dated 1984).
Like-named read-outs stand apart in the source and are kept apart here.

What was measured:
[1] = tested on: platelet agglutination caused by collagen; test: Inhibitory effect against platelet agglutinating agent collagen (Test Example 8); type: cell-based, human; design: key: The degree of agglutination was expressed by using marks +, ++, +++, etc.; The degree of agglutination was expressed by using marks +, ++, +++, etc.; The degree of agglutination was expressed by using marks +, ++, +++, etc; settings: specimen 2 mM, dissolved in 50% ethanol
Procedure: (§1) Inhibitory activities of each compound of this invention against platelet agglutinating agents (ADP, collagen, thrombin, ristocetin and epinephrine)were investigated according to the method using a microscope.
(§2) PRP was prepared by mixing a 3.8% aqueous sodium citrate and a human vein blood at a ratio of 1:9; centrifuging the mixture at 700 r.p.m. for 10 minutes; and then collecting the supernatant.
(§3) The residue remaining after collection of the PRP mentioned above was subjected further to centrifugation at 3000 r.p.m. for 10 minutes and then collected the supernatant to obtain PPP.
(§4) Following solutions were employed for the test.
b. collagen (0.25 μM/ml solution)
(§5) In each well of a Multidish (Nunc Multidish having 24 wells) was placed 0.2 ml of PRP (containing 3.0×10^5 platelet cells/cmm).
(§6) Thereto was added 50 μl of a specimen solution containing 10 mM of the compound according to this invention, and the mixture was stirred at 37° C. for 2 minutes. To the mixture was added 10 μl of each solution of the platelet agglutinating agent mentioned above, and the result was observed by using a microscope 1 minute and then 5 minutes thereafter.
(§7) The degree of agglutination was expressed by using marks +, ++, +++, etc., according to the method by Fukutake et al [Katsuhiro Fukutake, Iwao Yamaguchi: Blood and Blood Vessel, Volume 6, No. 7, pp. 55-60 (1975)].

[2] = tested on: platelet agglutination caused by ristocetin; test: Inhibitory effect against platelet agglutinating agent ristocetin (Test Example 8); type: cell-based, human; design: key: The degree of agglutination was expressed by using marks +, ++, +++, etc.; The degree of agglutination was expressed by using marks +, ++, +++, etc.; The degree of agglutination was expressed by using marks +, ++, +++, etc; settings: specimen 2 mM, dissolved in 50% ethanol
Procedure: as §1, §2, §3, §4
d. ristocetin (1.5 mg/ml solution)
as §5, §6, §7

Sarcoma-180 = test: Activity against a transplantable cancer, Sarcoma-180 (Test Example 7); type: in vivo, ICR-JCL mice; settings: 100 mg/kg ip once a day for 10 days; for inhibition in vivo at 100 mg/kg: Mus musculus, Sarcoma-180, ip, 240 h, read-out: I.R. (inhibition ratio, Sarcoma-180 tumor weight)
Procedure: Sarcoma-180 cells (1×10^6 cells) were inoculated subcutaneously into the back skin of each of ICR-JCL mice.
Chemotherapy was given intraperitoneally 24 hrs. after inoculation and performed once a day for 10 days. Each specimen to be administered was prepared by dissolving or suspending 30 mg of each compound according to this invention in 1 ml of a physiological saline or in 1 ml of a 0.2% solution of carboxymethylcellulose in a physiological saline, respectively.
All the solutions and the suspensions thus prepared were injected at a volume of 0.1 ml as a single dose (100 mg/Kg).
The inhibition ratio (%) was calculated according to the following equation: […]
wherein T represents the mean weight of the tumor Sarcoma-180 in a tested group of mice; and C represents the mean weight of the tumor in a control group of mice.

[3] = Acute toxicity (LD50) by oral or intraperitoneal administration to ddY mice (Test Example 6); type: in vivo; settings: mouse, in vivo, 7 days
Procedure: (§8) The acute toxicity of the compound according to this invention was determined by forced oral or intraperitoneal administration thereof to ddY mice.
(§9) To prepare each specimen to be administered, a predetermined amount of each compound shown in Table 5 was dissolved in a physiological saline or suspended in a 0.2% solution of carboxymethylcellulose in a physiological saline. Each specimen was administered orally to a ddY mouse via its stomach tube or injected intraperitoneally.

[4] = tested on: platelet agglutination caused by thrombin; test: Inhibitory effect against platelet agglutinating agent thrombin (Test Example 8); type: cell-based, human; design: key: The degree of agglutination was expressed by using marks +, ++, +++, etc.; The degree of agglutination was expressed by using marks +, ++, +++, etc.; The degree of agglutination was expressed by using marks +, ++, +++, etc; settings: specimen 2 mM, dissolved in 50% ethanol
Procedure: as §1, §2, §3, §4
c. thrombin (0.25 U/ml solution)
as §5, §6, §7

[5] = tested on: platelet agglutination caused by ADP; test: Inhibitory effect against platelet agglutinating agent ADP (Test Example 8); type: cell-based, human; design: key: The degree of agglutination was expressed by using marks +, ++, +++, etc.; The degree of agglutination was expressed by using marks +, ++, +++, etc.; The degree of agglutination was expressed by using marks +, ++, +++, etc; settings: specimen 2 mM, dissolved in 50% ethanol
Procedure: as §1, §2, §3, §4
a. ADP (2 μM/ml solution)
as §5, §6, §7

ddY mice = test: Acute toxicity (LD50) by oral or intraperitoneal administration to ddY mice (Test Example 6); type: in vivo; settings: 7 days, 10080 min; for LD50 (ip): intraperitoneal
Procedure: as §8, §9

[6] = tested on: platelet agglutination caused by epinephrine; test: Inhibitory effect against platelet agglutinating agent epinephrine (Test Example 8); type: cell-based, human; design: key: The degree of agglutination was expressed by using marks +, ++, +++, etc.; The degree of agglutination was expressed by using marks +, ++, +++, etc.; The degree of agglutination was expressed by using marks +, ++, +++, etc; settings: specimen 2 mM, dissolved in 50% ethanol
Procedure: as §1, §2, §3, §4
e. epinephrine (2 μg/ml solution)
as §5, §6, §7

[7] = ip, intraperitoneal, read-out: LD50 (ip)

| SMILES | State of agglutination, 5 min. [1] | State of agglutination, 5 min. [2] | inhibition in vivo at 100 mg/kg (Sarcoma-180) [%] | LD50 at 168 h [3, 7] [mg/kg] | LD50 at 168 h ([3]; po, read-out: LD50 (po)) [mg/kg] | State of agglutination, 5 min. [4] | State of agglutination, 5 min. [5] | I.R. (inhibition ratio, Sarcoma-180 tumor weight) (Sarcoma-180) [%] | LD50 (ip) (ddY mice) [mg/kg body weight] | LD50 (po) (ddY mice) [mg/kg body weight] | State of agglutination, 5 min. [6] |
| --- | --- | --- | --- | --- | --- | --- | --- | --- | --- | --- | --- |
| CCCCCCCCCCCCCCCCCCCC[C@@H]1OC[C@@H](O)[C@H](O)[C@H]1O [C-n-Eicosyl-β-D-xylopyranoside] | + | + | 44.3 | 430 | 2620 | + | + |  |  |  |  |
| CCCCCCCCCCCC[C@@H]1OC[C@@H](O)[C@H](O)[C@H]1O [C-n-Lauryl-β-D-xylopyranoside] | + | + | 83.4 | 620 | 2800 | + |  |  |  |  |  |
| CCCCCCCCC[C@@H]1OC[C@@H](O)[C@H](O)[C@H]1O [C-n-Nonyl-β-D-xylopyranoside] | + | + | 73.1 | 920 | 3000 | + | + |  |  |  |  |
| CCCCCCCCCCCCCCCCCC[C@@H]1OC[C@@H](O)[C@H](O)[C@H]1O [C-n-Stearyl-β-D-xylopyranoside] | + | + | 54.6 | 480 | 2500 | + | + |  |  |  |  |
| O=C(O)c1ccc(C[C@@H]2OC[C@@H](O)[C@H](O)[C@H]2O)cc1 [C-para(sodiumoxycarbonyl)benzyl-β-D-xylopyranoside] |  |  |  |  |  |  |  | 53.2 | 3000 | 9300 |  |
| O=C(O)c1ccc(S[C@@H]2OC[C@@H](O)[C@H](O)[C@H]2O)cc1 [Para(sodiumoxycarbonyl)phenyl 1-thio-β-D-xylopyranoside] |  |  |  |  |  |  |  | 49.6 | 2600 | 7000 |  |
| O=C(O)c1ccc(O[C@@H]2OC[C@@H](O)[C@H](O)[C@H]2O)cc1 [Para(sodiumoxycarbonyl)phenyl-β-D-xylopyranoside] |  |  |  |  |  |  |  | 39.7 | 2800 | 8200 |  |
| CCCCCCCCCCCCCCCCS[C@@H]1OC[C@@H](O)[C@H](O)[C@H]1O [n-Cetyl 1-thio-β-D-xylopyranoside] | + | + | 34.7 | 425 | 2280 | + | + |  |  |  |  |
| CCCCCCCCCCS[C@@H]1OC[C@@H](O)[C@H](O)[C@H]1O [n-Decyl 1-thio-β-D-xylopyranoside] | + | + | 40 | 450 | 2500 | + | + |  |  |  | + |
| CCCCCCCCCCCCCCCCCCCCS[C@@H]1OC[C@@H](O)[C@H](O)[C@H]1O [n-Eicosyl 1-thio-β-D-xylopyranoside] | + | + | 32.2 | 400 | 2300 | + | + |  |  |  |  |
| CCCCCCCCCCCCS[C@@H]1OC[C@@H](O)[C@H](O)[C@H]1O [n-Lauryl 1-thio-β-D-xylopyranoside] | + | + | 42.3 | 407 | 2300 | + | + |  |  |  |  |
